PubChem BioAssay (NCI)
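1) Cells in 96-well plates. 2) Compound, 48 h, 5 concentrations. 3) Linear interpolation between surrounding doses. 4) Unreached endpoint = highest concentration. GI50 marks 50% less growth. TGI marks complete inhibition of growth.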

Tests used:
Assay in all cases: DTP human tumour cell line panel, 48 h
SK-OV-3 ovarian = tested on: SK-OV-3 ovarian
M14 melanoma = tested on: M14 melanoma
SF-295 CNS = tested on: SF-295 CNS
NCI-H460 lung = tested on: NCI-H460 lung
IGROV1 ovarian = tested on: IGROV1 ovarian
MDA-MB-435 = tested on: MDA-MB-435
NCI-H23 lung = tested on: NCI-H23 lung
OVCAR-3 ovarian = tested on: OVCAR-3 ovarian
NCI/ADR-RES ovarian = tested on: NCI/ADR-RES ovarian
SR leukemia = tested on: SR leukemia
KM12 colon = tested on: KM12 colon
RPMI-8226 leukemia = tested on: RPMI-8226 leukemia
LOX IMVI melanoma = tested on: LOX IMVI melanoma
HS 578T breast = tested on: HS 578T breast
MCF7 breast = tested on: MCF7 breast
UACC-62 melanoma = tested on: UACC-62 melanoma
A549 NSCLC = tested on: A549 NSCLC
SF-539 CNS = tested on: SF-539 CNS
NCI-H226 lung = tested on: NCI-H226 lung
SNB-19 CNS = tested on: SNB-19 CNS
HOP-92 NSCLC = tested on: HOP-92 NSCLC
NCI-H522 lung = tested on: NCI-H522 lung
SK-MEL-2 melanoma = tested on: SK-MEL-2 melanoma
786-0 renal = tested on: 786-0 renal
RXF 393 renal = tested on: RXF 393 renal
COLO 205 colon = tested on: COLO 205 colon
UO-31 renal = tested on: UO-31 renal
DU-145 prostate = tested on: DU-145 prostate
OVCAR-4 ovarian = tested on: OVCAR-4 ovarian
MOLT-4 leukemia = tested on: MOLT-4 leukemia
HCT-15 colon = tested on: HCT-15 colon
U251 CNS = tested on: U251 CNS
HOP-62 NSCLC = tested on: HOP-62 NSCLC
TK-10 renal = tested on: TK-10 renal
OVCAR-5 ovarian = tested on: OVCAR-5 ovarian
HCC-2998 colon = tested on: HCC-2998 colon
SNB-75 CNS = tested on: SNB-75 CNS
HL-60(TB) leukemia = tested on: HL-60(TB) leukemia
T-47D breast = tested on: T-47D breast
SK-MEL-28 melanoma = tested on: SK-MEL-28 melanoma
SN12C renal = tested on: SN12C renal
SW-620 colon = tested on: SW-620 colon
CCRF-CEM leukemia = tested on: CCRF-CEM leukemia
MDA-MB-231 breast = tested on: MDA-MB-231 breast
A498 renal = tested on: A498 renal
MALME-3M melanoma = tested on: MALME-3M melanoma
HCT-116 colon = tested on: HCT-116 colon
UACC-257 melanoma = tested on: UACC-257 melanoma
SF-268 CNS = tested on: SF-268 CNS
HT29 colon = tested on: HT29 colon
ACHN renal = tested on: ACHN renal
BT-549 breast = tested on: BT-549 breast
PC-3 prostate = tested on: PC-3 prostate
CAKI-1 renal = tested on: CAKI-1 renal
SK-MEL-5 melanoma = tested on: SK-MEL-5 melanoma
OVCAR-8 ovarian = tested on: OVCAR-8 ovarian
K-562 leukemia = tested on: K-562 leukemia

`CS(=O)(=O)N1CCC(Nc2ncc(C(=O)c3c(F)cccc3F)c(N)n2)CC1` was tested, and the GI50 (SK-OV-3 ovarian) was > 25 µM, the TGI (SK-OV-3 ovarian) was > 25 µM and the GI50 (M14 melanoma) was 19.4 µM. For the same molecule, the TGI (M14 melanoma) was > 25 µM, the GI50 (SF-295 CNS) was 11.2 µM and the TGI (SF-295 CNS) was > 25 µM. For the same molecule, the GI50 (NCI-H460 lung) was 4.25 µM, the TGI (NCI-H460 lung) was > 25 µM and the GI50 (IGROV1 ovarian) was 11.4 µM. For the same molecule, the TGI (IGROV1 ovarian) was > 25 µM, the GI50 (MDA-MB-435) was 11.1 µM and the TGI (MDA-MB-435) was > 25 µM. The GI50 (NCI-H23 lung) was 8.6 µM, the TGI (NCI-H23 lung) was > 25 µM and the GI50 (OVCAR-3 ovarian) was 13.7 µM. For the same molecule, the TGI (OVCAR-3 ovarian) was > 25 µM, the GI50 (NCI/ADR-RES ovarian) was > 25 µM and the TGI (NCI/ADR-RES ovarian) was > 25 µM. The GI50 (SR leukemia) was 3.79 µM, the TGI (SR leukemia) was > 18.5 µM and the GI50 (KM12 colon) was 8.67 µM. The TGI (KM12 colon) was > 25 µM, the GI50 (RPMI-8226 leukemia) was 7.67 µM and the TGI (RPMI-8226 leukemia) was > 25 µM. The GI50 (LOX IMVI melanoma) was 9.9 µM, the TGI (LOX IMVI melanoma) was > 25 µM and the GI50 (HS 578T breast) was 15.1 µM. For the same molecule, the TGI (HS 578T breast) was > 25 µM, the GI50 (MCF7 breast) was 2.11 µM and the TGI (MCF7 breast) was > 25 µM. The GI50 (UACC-62 melanoma) was 12.6 µM, the TGI (UACC-62 melanoma) was > 25 µM and the GI50 (A549 NSCLC) was 6.14 µM. For the same molecule, the TGI (A549 NSCLC) was > 25 µM, the GI50 (SF-539 CNS) was 9.36 µM and the TGI (SF-539 CNS) was > 25 µM. The GI50 (NCI-H226 lung) was 7.27 µM, the TGI (NCI-H226 lung) was > 25 µM and the GI50 (SNB-19 CNS) was 6.45 µM. The TGI (SNB-19 CNS) was > 25 µM, the GI50 (HOP-92 NSCLC) was 1.96 µM and the TGI (HOP-92 NSCLC) was > 20.8 µM. For the same molecule, the GI50 (NCI-H522 lung) was > 13.1 µM, the TGI (NCI-H522 lung) was > 25 µM and the GI50 (SK-MEL-2 melanoma) was > 20.9 µM. The TGI (SK-MEL-2 melanoma) was > 25 µM, the GI50 (786-0 renal) was 12.6 µM and the TGI (786-0 renal) was > 25 µM. The GI50 (RXF 393 renal) was 5.32 µM, the TGI (RXF 393 renal) was 17.9 µM and the GI50 (COLO 205 colon) was 6.26 µM. The TGI (COLO 205 colon) was > 25 µM, the GI50 (UO-31 renal) was 12 µM and the TGI (UO-31 renal) was > 25 µM. The GI50 (DU-145 prostate) was 9.76 µM, the TGI (DU-145 prostate) was > 25 µM and the GI50 (OVCAR-4 ovarian) was > 13.5 µM. For the same molecule, the TGI (OVCAR-4 ovarian) was > 25 µM, the GI50 (MOLT-4 leukemia) was 11.2 µM and the TGI (MOLT-4 leukemia) was > 25 µM. For the same molecule, the GI50 (HCT-15 colon) was 11.8 µM, the TGI (HCT-15 colon) was > 25 µM and the GI50 (U251 CNS) was 6.33 µM. For the same molecule, the TGI (U251 CNS) was > 25 µM, the GI50 (HOP-62 NSCLC) was 12.6 µM and the TGI (HOP-62 NSCLC) was > 25 µM. The GI50 (TK-10 renal) was 7.98 µM, the TGI (TK-10 renal) was > 25 µM and the GI50 (OVCAR-5 ovarian) was 9.78 µM. The TGI (OVCAR-5 ovarian) was > 25 µM, the GI50 (HCC-2998 colon) was 12.9 µM and the TGI (HCC-2998 colon) was > 25 µM. For the same molecule, the GI50 (SNB-75 CNS) was > 10.9 µM, the TGI (SNB-75 CNS) was 24.3 µM and the GI50 (HL-60(TB) leukemia) was 8.65 µM. For the same molecule, the TGI (HL-60(TB) leukemia) was > 25 µM, the GI50 (T-47D breast) was 12 µM and the TGI (T-47D breast) was > 25 µM. For the same molecule, the GI50 (SK-MEL-28 melanoma) was 18.6 µM, the TGI (SK-MEL-28 melanoma) was > 25 µM and the GI50 (SN12C renal) was 12.3 µM. The TGI (SN12C renal) was > 25 µM, the GI50 (SW-620 colon) was 5.73 µM and the TGI (SW-620 colon) was > 25 µM. For the same molecule, the GI50 (CCRF-CEM leukemia) was 9.91 µM, the TGI (CCRF-CEM leukemia) was > 25 µM and the GI50 (MDA-MB-231 breast) was 11.9 µM. The TGI (MDA-MB-231 breast) was > 25 µM, the GI50 (A498 renal) was 9.15 µM and the TGI (A498 renal) was > 25 µM. For the same molecule, the GI50 (MALME-3M melanoma) was 10.6 µM, the TGI (MALME-3M melanoma) was > 25 µM and the GI50 (HCT-116 colon) was 6 µM. The TGI (HCT-116 colon) was > 25 µM, the GI50 (UACC-257 melanoma) was 13.2 µM and the TGI (UACC-257 melanoma) was > 25 µM. For the same molecule, the GI50 (SF-268 CNS) was > 17.9 µM, the TGI (SF-268 CNS) was > 25 µM and the GI50 (HT29 colon) was 10.1 µM. The TGI (HT29 colon) was > 25 µM, the GI50 (ACHN renal) was 7.06 µM and the TGI (ACHN renal) was > 25 µM. For the same molecule, the GI50 (BT-549 breast) was > 20.7 µM, the TGI (BT-549 breast) was > 25 µM and the GI50 (PC-3 prostate) was 4.8 µM. The TGI (PC-3 prostate) was > 25 µM, the GI50 (CAKI-1 renal) was 8.76 µM and the TGI (CAKI-1 renal) was > 25 µM. The GI50 (SK-MEL-5 melanoma) was 7.65 µM, the TGI (SK-MEL-5 melanoma) was > 25 µM and the GI50 (OVCAR-8 ovarian) was 9.7 µM. The TGI (OVCAR-8 ovarian) was > 25 µM, the GI50 (K-562 leukemia) was 20.4 µM and the TGI (K-562 leukemia) was > 25 µM.
